Test results as given in patent US20150272959A1, “SMALL MOLECULES AS ANTI-HIV AGENTS THAT DISRUPT VIF SELF-ASSOCIATION AND METHODS OF USE THEREOF” (OYAGEN, INC., priority 2012, published 2015).
“And” between values parts separate entries of the source, which are not always exact repeats. Equal values may be shown once. Read-outs that look alike come from different tables or passages of the source.

Tests used:
[1] = tested on: Vif-dependent A3G degradation; test: Vif-dependent A3G-mCherry degradation assay in 293T cells; assay type: cell-based; details: single dose 8 μM
Method: A3G-mCherry is stably expressed in 293T cells under puromycin selection. 50 ng of Vif was transiently transfected into the cells in 384-well format with Turbofect. 4 hours after transfection the chemistries were added to cells in a range from (0.5-16 μM). 24 hours after chemistries were added the mCherry signal was read on a Biotek Synergy 4 plate reader. The signal from cells plated but not transfected with Vif was averaged and set at 100% (left image), and cells transfected with Vif and treated with DMSO only were averaged and set at 0% (right image). A chemistry that inhibits Vif's ability to chaperone A3G to the proteasomal degradation pathway would result in an increased mCherry signal compared to the DMSO only control, and any signal that is much higher than the no Vif positive control is likely to be due to autofluorescence from the chemistry itself.
To simplify the numbering the compounds were numbered from 1 to 32 in the same order as plated in the original vials and listed on the original Dry Powder list sent with the vials by the Broad. […] The first compound is 02-16, which is the lead from the previous OyaGen screen mentioned above with strong A3G dependency in live virus tests and the last data set are the DMSO controls that were averaged out to set the 0% mark. […]

[2] = tested on: pseudotyped HIV; assay type: cell-based; details: for efficacy: all concentrations tested below 15 μM; for toxicity: concentrations higher than 15 μM
Description: This figure is a visual representation of how the single cycle infectivity experiments were done. They are in 6 well format in order to obtain enough virus to do viral particle purifications for western blot detection of A3G in the viral particle. […] The wild type HIV proviral vector codes for all HIV genes except nef (replaced with EGFP) and env. […] Alternatively, in the absence of A3G, both wild type and ΔVif viruses should have high infectivity.
[…]. Viral load was then normalized with a p24 ELISA (Perkin Elmer).
The infections utilized TZM-bl reporter cells that contain stably integrated luciferase that is driven by the HIV-LTR promoter, therefore luciferase is expressed upon successful HIV infection. Triplicate infections in 96-well plates at 10,000 cells/well with 500 pg p24/well proceeded for 48 hours before the addition of SteadyGlo™ Reagent (Promega) to each well for 30 minutes. Luminescence was measured as a quantitative metric for changes in infectivity with each compound as compared to controls, in which relative luminescence units (RLU) with no chemistry are set to 100%.
This figure is intended to highlight where in the experimental method negative results occurred. Although all compounds to this point in screening have shown little to no toxicity in the Primary and Secondary Screens, when cells are challenged with viral production they are more sensitive to toxicity from chemistries since cells have to combat viral proteins overtaking of cellular pathways and any adverse effects from the chemistries. […] If the producer cells are healthy and make enough virus for infectivity testing there are three possible outcomes and two are undesirable for any chemistry to go forward into probe development. […] This is best represented as a differential between infectivity in the presence of Vif and A3G vs the absence of Vif and A3G.
Each compound was tested at multiple concentrations in separate infectivity assays. The concentrations are listed on the top, followed by the infectivity in relation to the no chemistry control for both + and −Vif and A3G conditions, and the large number on the bottom is the differential between infectivity of +Vif virus and with A3G cotransfected compared to −Vif virus without A3G (purple numbers are for good values and blue numbers are for weak values). […] For compound 9 although the drop in infectivity compared to the no chemistries controls are not as low as for compounds 21 and 24 for +Vif and A3G infectivities, there is an increase in the −Vif and A3G infectivities compared to control making the differential between the +/−Vif and A3G virus lower than 24 and 21 at 0.33 and 0.44 in Dry Powder Infectivities B&C. Note that normalization for the viral load with p24 only accounts for total viral particles in the media, but is unable to discriminate between mature and immature virions. If a chemistry has an effect on % of mature virions compared to the no chemistry control there could be an impact on viral infectivity values compared to control. Therefore, although it is crucial to see lower infectivity than the no chemistry control the more critical number is the differential between +/−Vif and A3G, because both those virial preps contain the chemistry and would have similar effects on the viral populations going into the infectivity assay. On the other hand, compound 21 has +Vif and A3G infectivity at 56% at 15 μM but the −Vif and A3G infectivity is only at 63% making the differential only 0.88.

[3] = tested on: A3G in the viral particle; test: A3G in the viral particle, western blot A3G:p24 ratio (FIG. 18); assay type: cell-based, HIV; details: for increase of A3G:p24 ratio over the negative control: parallel to Dry Powder Infectivities B & C, 30 ng p24
Method: Parallel to Dry Powder Infectivities B & C, viral particles (30 ng p24) were pelleted through a 20% sucrose cushion, resolved by SDS-PAGE and western blotted for VS-tagged A3G and p24. The yield of A3G relative to p24 (as a virus loading control) was quantified by scanning densitometry to validate the antiviral mechanism. The first two lanes are the −Vif virus with A3G (positive control) and the +Vif virus with A3G (negative control). The A3G:p24 Ratio for the negative control was set to 1 (Ratios listed under the westerns). Chemistry 24 had 5 and 15 fold increases over the negative control. On the other hand, chemistry 9 had increases of 55 and 76-fold over the control, both higher than the positive control at 48-fold above the negative control. However, the positive control has lower overall infectivity and differentials than 9.

[4] = tested on: A3.01 (+A3G) cells; assay type: cell-based
Description: (§1) All the screens to this point utilized 293T cells and the Brd. […] The rationale is to set a CC50 standard in T cells to measure against for medicinal chemistry derived compounds created from these scaffolds going forward. CEMSS (−A3G) and A3.01 (+A3G) were selected, because they are both CEM derived T cell lines that can be used to compare in live virus spreading infections for A3G-dependency.

[5] = tested on: CEMSS (-A3G) cells; assay type: cell-based
Description: as §1

[6] = 15 μM, relative to no chemistry control

Row | SMILES | DMSO stock test [1] | +/-Vif and A3G differential (in words) [2] | -Vif and A3G infectivities compared to control [2] | antiviral activity [2] | differential between +/-Vif and A3G virus infectivity ([2]; Dry Powder Infectivity B) | differential between +/-Vif and A3G virus infectivity ([2]; Dry Powder Infectivity C) | efficacy [2] | toxicity [2] | A3G in the viral particles (in words) [3] | increase of A3G:p24 ratio over the negative control [3] | CC50 [4] [µM] | CC50 [5] [µM] | differential between +/-Vif and A3G infectivity ([2]; 15 μM) | +Vif and A3G infectivity [2, 6] [%] | -Vif and A3G infectivity [2, 6] [%] | toxic effects ([2]; above 30 μM) | differential between +/-Vif and A3G infectivity ([2]; above 30 μM, Dry Powder infectivity A) | differential between +/-Vif and A3G infectivity ([2]; above 30 μM, Dry Powder infectivity C)
1 | Cc1nnc2ccc(-c3cccc(NS(=O)(=O)c4cc(F)ccc4F)c3)nn12 [Compound 9] | low | differential between +/−Vif and A3G infectivities | increase | antiviral activity | 0.33 | 0.44 | displayed efficacy | slight toxicity | increase in A3G | 55 fold and 76 fold | > 25 | > 25 |  |  |  |  |  | 
2 | O=C(NC1(C(F)(F)F)Oc2ccc(Cl)cc2O1)N1CCC2(CC1)OCCO2 (stereo not shown) [Compound 21] |  | differential between +/−Vif and A3G infectivities |  | antiviral activity |  |  |  |  | increase in A3G | 4 fold and 5 fold | > 25 | > 25 | 0.88 | 56 | 63 | no toxic effects | 0.65 | 0.57
3 | FC(F)(F)c1nnc2c3ccccc3c(Cl)nn12 [Compound 24] |  | differential between +/−Vif and A3G infectivities |  | antiviral activity |  |  | displayed efficacy | slight toxicity | increase in A3G |  | 4.9 | 9.7 |  |  |  |  |  | 
